Assay results published in ChEMBL document CHEMBL4725412, “Augmenting the Activity of Macrolide Adjuvants against Acinetobacter baumannii” (2020).

What was measured:
Format in all cases: functional
Acinetobacter baumannii [1] = experiment: Potentiation of clarithromycin-induced antibacterial activity against Acinetobacter baumannii AB5075 assessed as clarithromycin MIC at 5 uM incubated for 16 hrs by broth microdilution method (reference value: […] ug/ml)
Acinetobacter baumannii [2] = experiment: Potentiation of clarithromycin-induced antibacterial activity against Acinetobacter baumannii AB5075 assessed as clarithromycin MIC at 7.5 uM incubated for 16 hrs by broth microdilution method (reference value: […] ug/ml)
Acinetobacter baumannii [3] = experiment: Potentiation of clarithromycin-induced antibacterial activity against Acinetobacter baumannii AB5075 assessed as fold reduction in clarithromycin MIC at 5 uM incubated for 16 hrs in presence of clarithromycin by broth microdilution method
Acinetobacter baumannii [4] = experiment: Potentiation of clarithromycin-induced antibacterial activity against Acinetobacter baumannii 4026 assessed as fold reduction in clarithromycin MIC at 7.5 uM incubated for 16 hrs by broth microdilution method
Acinetobacter baumannii [5] = experiment: Antibacterial activity against Acinetobacter baumannii AB5075 assessed as reduction in microbial growth incubated for 16 hrs by broth microdilution method
Acinetobacter baumannii [6] = experiment: Antibacterial activity against Acinetobacter baumannii 3806 assessed as reduction in microbial growth incubated for 16 hrs by broth microdilution method
Acinetobacter baumannii [7] = experiment: Antibacterial activity against Acinetobacter baumannii 3927 assessed as reduction in microbial growth incubated for 16 hrs by broth microdilution method
Acinetobacter baumannii [8] = experiment: Antibacterial activity against Acinetobacter baumannii 4025 assessed as reduction in microbial growth incubated for 16 hrs by broth microdilution method
Acinetobacter baumannii [9] = experiment: Antibacterial activity against Acinetobacter baumannii 4026 assessed as reduction in microbial growth incubated for 16 hrs by broth microdilution method
Acinetobacter baumannii [10] = experiment: Antibacterial activity against Acinetobacter baumannii 4027 assessed as reduction in microbial growth incubated for 16 hrs by broth microdilution method
Acinetobacter baumannii [11] = experiment: Antibacterial activity against Acinetobacter baumannii 4052 assessed as reduction in microbial growth incubated for 16 hrs by broth microdilution method
Acinetobacter baumannii [12] = experiment: Antibacterial activity against Acinetobacter baumannii 4269 assessed as reduction in microbial growth incubated for 16 hrs by broth microdilution method
Acinetobacter baumannii [13] = experiment: Antibacterial activity against Acinetobacter baumannii 4448 assessed as reduction in microbial growth incubated for 16 hrs by broth microdilution method
Acinetobacter baumannii [14] = experiment: Antibacterial activity against Acinetobacter baumannii 4456 assessed as reduction in microbial growth incubated for 16 hrs by broth microdilution method
Acinetobacter baumannii [15] = experiment: Antibacterial activity against Acinetobacter baumannii 4490 assessed as reduction in microbial growth incubated for 16 hrs by broth microdilution method
Acinetobacter baumannii [16] = experiment: Antibacterial activity against Acinetobacter baumannii 4498 assessed as reduction in microbial growth incubated for 16 hrs by broth microdilution method
Acinetobacter baumannii [17] = experiment: Antibacterial activity against Acinetobacter baumannii 4795 assessed as reduction in microbial growth incubated for 16 hrs by broth microdilution method
Acinetobacter baumannii [18] = experiment: Antibacterial activity against Acinetobacter baumannii 4857 assessed as reduction in microbial growth incubated for 16 hrs by broth microdilution method
Acinetobacter baumannii [19] = experiment: Antibacterial activity against Acinetobacter baumannii 4878 assessed as reduction in microbial growth incubated for 16 hrs by broth microdilution method
Acinetobacter baumannii [20] = experiment: Antibacterial activity against Acinetobacter baumannii 4957 assessed as reduction in microbial growth incubated for 16 hrs by broth microdilution method
Acinetobacter baumannii [21] = experiment: Antibacterial activity against Acinetobacter baumannii 4991 assessed as reduction in microbial growth incubated for 16 hrs by broth microdilution method
Acinetobacter baumannii [22] = experiment: Antibacterial activity against Acinetobacter baumannii 5001 assessed as reduction in microbial growth incubated for 16 hrs by broth microdilution method
Acinetobacter baumannii [23] = experiment: Antibacterial activity against Acinetobacter baumannii 5197 assessed as reduction in microbial growth incubated for 16 hrs by broth microdilution method
Acinetobacter baumannii [24] = experiment: Antibacterial activity against Acinetobacter baumannii 5256 assessed as reduction in microbial growth incubated for 16 hrs by broth microdilution method
Acinetobacter baumannii [25] = experiment: Antibacterial activity against Acinetobacter baumannii 5711 assessed as reduction in microbial growth incubated for 16 hrs by broth microdilution method
Acinetobacter baumannii [26] = experiment: Potentiation of clarithromycin-induced antibacterial activity against Acinetobacter baumannii 3927 assessed as fold reduction in clarithromycin MIC at 7.5 uM incubated for 16 hrs by broth microdilution method
Acinetobacter baumannii [27] = experiment: Potentiation of clarithromycin-induced antibacterial activity against Acinetobacter baumannii 4025 assessed as fold reduction in clarithromycin MIC at 7.5 uM incubated for 16 hrs by broth microdilution method
Acinetobacter baumannii [28] = experiment: Potentiation of clarithromycin-induced antibacterial activity against Acinetobacter baumannii 4027 assessed as fold reduction in clarithromycin MIC at 7.5 uM incubated for 16 hrs by broth microdilution method
Acinetobacter baumannii [29] = experiment: Potentiation of clarithromycin-induced antibacterial activity against Acinetobacter baumannii 4269 assessed as fold reduction in clarithromycin MIC at 7.5 uM incubated for 16 hrs by broth microdilution method
Acinetobacter baumannii [30] = experiment: Potentiation of clarithromycin-induced antibacterial activity against Acinetobacter baumannii 4448 assessed as fold reduction in clarithromycin MIC at 7.5 uM incubated for 16 hrs by broth microdilution method
Acinetobacter baumannii [31] = experiment: Potentiation of clarithromycin-induced antibacterial activity against Acinetobacter baumannii 4456 assessed as fold reduction in clarithromycin MIC at 7.5 uM incubated for 16 hrs by broth microdilution method
Acinetobacter baumannii [32] = experiment: Potentiation of clarithromycin-induced antibacterial activity against Acinetobacter baumannii 4490 assessed as fold reduction in clarithromycin MIC at 7.5 uM incubated for 16 hrs by broth microdilution method
Acinetobacter baumannii [33] = experiment: Potentiation of clarithromycin-induced antibacterial activity against Acinetobacter baumannii 4498 assessed as fold reduction in clarithromycin MIC at 7.5 uM incubated for 16 hrs by broth microdilution method
Acinetobacter baumannii [34] = experiment: Potentiation of clarithromycin-induced antibacterial activity against Acinetobacter baumannii 4795 assessed as fold reduction in clarithromycin MIC at 7.5 uM incubated for 16 hrs by broth microdilution method
Acinetobacter baumannii [35] = experiment: Potentiation of clarithromycin-induced antibacterial activity against Acinetobacter baumannii 4857 assessed as fold reduction in clarithromycin MIC at 7.5 uM incubated for 16 hrs by broth microdilution method
Acinetobacter baumannii [36] = experiment: Potentiation of clarithromycin-induced antibacterial activity against Acinetobacter baumannii 4878 assessed as fold reduction in clarithromycin MIC at 7.5 uM incubated for 16 hrs by broth microdilution method
Acinetobacter baumannii [37] = experiment: Potentiation of clarithromycin-induced antibacterial activity against Acinetobacter baumannii 4957 assessed as fold reduction in clarithromycin MIC at 7.5 uM incubated for 16 hrs by broth microdilution method
Acinetobacter baumannii [38] = experiment: Potentiation of clarithromycin-induced antibacterial activity against Acinetobacter baumannii 5197 assessed as fold reduction in clarithromycin MIC at 7.5 uM incubated for 16 hrs by broth microdilution method
Acinetobacter baumannii [39] = experiment: Potentiation of clarithromycin-induced antibacterial activity against Acinetobacter baumannii 5256 assessed as fold reduction in clarithromycin MIC at 7.5 uM incubated for 16 hrs by broth microdilution method
Acinetobacter baumannii [40] = experiment: Potentiation of clarithromycin-induced antibacterial activity against Acinetobacter baumannii 5711 assessed as fold reduction in clarithromycin MIC at 7.5 uM incubated for 16 hrs by broth microdilution method
Acinetobacter baumannii [41] = experiment: Potentiation of clarithromycin-induced antibacterial activity against Acinetobacter baumannii 8967 assessed as fold reduction in clarithromycin MIC at 7.5 uM incubated for 16 hrs by broth microdilution method

MIC (Acinetobacter baumannii [1]): 4 µg/mL | MIC (Acinetobacter baumannii [2]): 0.25 µg/mL | MIC (Acinetobacter baumannii [5]): 50 µM | MIC (Acinetobacter baumannii [6]): 25 µM | MIC (Acinetobacter baumannii [7]): 25 µM | MIC (Acinetobacter baumannii [8]): 25 µM | MIC (Acinetobacter baumannii [9]): 25 µM | MIC (Acinetobacter baumannii [10]): 25 µM | MIC (Acinetobacter baumannii [11]): 25 µM | MIC (Acinetobacter baumannii [12]): 25 µM | MIC (Acinetobacter baumannii [13]): 25 µM | MIC (Acinetobacter baumannii [14]): 25 µM | MIC (Acinetobacter baumannii [15]): 25 µM | MIC (Acinetobacter baumannii [16]): 25 µM | MIC (Acinetobacter baumannii [17]): 25 µM | MIC (Acinetobacter baumannii [18]): 25 µM | MIC (Acinetobacter baumannii [19]): 25 µM | MIC (Acinetobacter baumannii [20]): 25 µM | MIC (Acinetobacter baumannii [21]): 25 µM | MIC (Acinetobacter baumannii [22]): 25 µM | MIC (Acinetobacter baumannii [23]): 25 µM | MIC (Acinetobacter baumannii [24]): 25 µM | MIC (Acinetobacter baumannii [25]): 25 µM
Structure (SMILES): Cl.Nc1nc(-c2ccc(NC(=O)Nc3cc(Br)cc(Br)c3)cc2)c[nH]1
fold change (FC) (Acinetobacter baumannii [3]): 8 | fold change (FC) (Acinetobacter baumannii [4]): 16 | fold change (FC) (Acinetobacter baumannii [26]): 16 | fold change (FC) (Acinetobacter baumannii [27]): 16 | fold change (FC) (Acinetobacter baumannii [28]): 16 | fold change (FC) (Acinetobacter baumannii [29]): 16 | fold change (FC) (Acinetobacter baumannii [30]): 16 | fold change (FC) (Acinetobacter baumannii [31]): 16 | fold change (FC) (Acinetobacter baumannii [32]): 16 | fold change (FC) (Acinetobacter baumannii [33]): 16 | fold change (FC) (Acinetobacter baumannii [34]): 16 | fold change (FC) (Acinetobacter baumannii [35]): 16 | fold change (FC) (Acinetobacter baumannii [36]): 16 | fold change (FC) (Acinetobacter baumannii [37]): 16 | fold change (FC) (Acinetobacter baumannii [38]): 16 | fold change (FC) (Acinetobacter baumannii [39]): 16 | fold change (FC) (Acinetobacter baumannii [40]): 16 | fold change (FC) (Acinetobacter baumannii [41]): 16
